From PubChem BioAssay (NCI) come the findings set out here.

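Dose response: 5 concentrations. Exposure: 48 h. Format: 96-well plates. Endpoint: linear interpolation; highest concentration if not reached. GI50 = concentration required for 50% inhibition of growth. TGI is the concentration that stops growth completely.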 A value given as a limit tells only on which side of the number the result lay.

Test systems include HCT-15 colon; HOP-62 NSCLC; M14 melanoma; MALME-3M melanoma; MCF7 breast; NCI/ADR-RES ovarian; SF-539 CNS; CAKI-1 renal; LXFL 529 NSCLC; NCI-H522 lung; OVCAR-5 ovarian; DMS 273 small cell lung; XF 498 CNS.
What all share (assay): growth of human tumour cells (NCI), 48 h

Take `c1ccc(C2=NN[C@H](c3cn(-c4ccccc4)nc3-c3ccccc3)C2)cc1`: the GI50 in the assay on HCT-15 colon was greater than 100 µM; with HOP-62 NSCLC, 2.16 µM; in the assay on M14 melanoma it was 6.46 µM; in the assay with MALME-3M melanoma, 8.98 µM; with MCF7 breast, greater than 100 µM; in the assay with NCI/ADR-RES ovarian, 3.98 µM. Also, the GI50 in the assay with SF-539 CNS was 9.11 µM. The TGI with HCT-15 colon was greater than 100 µM; in the assay on HOP-62 NSCLC it was 5.58 µM; in the assay on M14 melanoma, greater than 100 µM; in the assay with MALME-3M melanoma, greater than 100 µM; with MCF7 breast it was greater than 100 µM; in the assay on NCI/ADR-RES ovarian it was greater than 100 µM. The TGI in the assay on SF-539 CNS was greater than 100 µM.
As to `C=CCCCCn1c2ccccc2c2c(C)c3c[n+](C)ccc3c(C)c21`, the TGI with CAKI-1 renal was 39 µM; with HOP-62 NSCLC, 1.94 µM; in the assay with LXFL 529 NSCLC, 1.32 µM; in the assay on M14 melanoma, 2.19 µM; in the assay with MALME-3M melanoma, 1.16 µM; in the assay with NCI-H522 lung it was 0.608 µM. The TGI with OVCAR-5 ovarian came out at 3.26 µM; in the assay on SF-539 CNS it was 1.83 µM.
For the compound `Cc1cc(=O)[nH]c(NN2C(Cl)C(=O)C2c2c(O)ccc3ccccc23)n1` (centres undefined), the TGI in the assay with DMS 273 small cell lung is 33.1 µM; with HCT-15 colon, 36.9 µM; in the assay with HOP-62 NSCLC, 77 µM; in the assay on LXFL 529 NSCLC it was 30.3 µM; with M14 melanoma it was 29 µM; in the assay on OVCAR-5 ovarian, greater than 100 µM. Also, the TGI in the assay on SF-539 CNS stood at 41.1 µM.
Turning to `Clc1ccc2c(Cl)nc(-c3ccccc3)nc2c1`, the TGI in the assay on CAKI-1 renal is 97.3 µM; in the assay on DMS 273 small cell lung, greater than 100 µM; in the assay with HOP-62 NSCLC it was greater than 100 µM; in the assay with LXFL 529 NSCLC it was greater than 100 µM; in the assay with MALME-3M melanoma, greater than 100 µM; with OVCAR-5 ovarian, greater than 100 µM. This compound registered a TGI in the assay on XF 498 CNS of 35.6 µM.
With `CCCCCCCSCC1OC(n2cnc3c(N)ncnc32)C(O)C1O` (centres undefined), the TGI with CAKI-1 renal was 19.5 µM; in the assay on DMS 273 small cell lung, 54.2 µM; in the assay on HCT-15 colon, 22.7 µM; in the assay on LXFL 529 NSCLC, 29.8 µM; with M14 melanoma it was 48.5 µM; with MALME-3M melanoma, greater than 100 µM. The TGI with OVCAR-5 ovarian is greater than 100 µM; in the assay on SF-539 CNS, greater than 100 µM; in the assay with XF 498 CNS, 97.6 µM.
`Oc1c2c(c3c4c1N=CC=4CCN=3)C1(C=C(Br)C(O)C(Br)=C1)CCN2` (centres undefined): the TGI in the assay with CAKI-1 renal came to 29.3 µM; in the assay on DMS 273 small cell lung, 3.45 µM; with HCT-15 colon it was 4.42 µM; in the assay on HOP-62 NSCLC, 33.4 µM; with MCF7 breast, 2.73 µM; in the assay with NCI-H522 lung, 0.818 µM. The figures for the TGI with NCI/ADR-RES ovarian, in the assay on OVCAR-5 ovarian and in the assay on SF-539 CNS were 2.77 µM, 4.49 µM and 4.17 µM, respectively.
